Source: US8624027B2, “Combination therapy for treating cancer and diagnostic assays for use therein” (AbbVie Inc., priority 2005, dated 2014)
Like-named read-outs stand apart in the source and are kept apart here.

Key:
[1] = system: NCI-H146 human small cell lung carcinoma cells; experiment: Cellular efficacy in human tumor cell line (MTS viability assay); assay type: cell-based; conditions: NCI-H146, 10% human serum, 48 hours
Description: NCI-H146 (ATCC, Manassas, Va.) human small cell lung carcinoma cells were plated 50,000 cells per well in 96-well tissue culture plates in a total volume of 100 μL tissue culture medium supplemented with 10% human serum (Invitrogen, Carlsbad, Calif.) instead of fetal bovine serum and treated with a 2-fold serial dilution of the compounds of interest from 10 μM to 0.020 μM. Each concentration was tested in duplicate at least 3 separate times. The number of viable cells following 48 hours of compound treatment was determined using the CellTiter 96® AQueous non-radioactive cell proliferation MTS assay according to manufacturer's recommendations (Promega Corp., Madison, Wis.).

[2] = Pharmacokinetic evaluation in rat; assay type: in vivo; conditions: male, Sprague-Dawley, plasma; for AUC(0-inf): single 5 mg/kg oral dose, Table 1, read-out: Pharmacokinetic area under the plasma concentration Curve (rat) AUC0-∞; for AUC / Cmax: 5 mg/kg, oral; for AUC: Table 3, read-out: Pharmacokinetic area under the plasma concentration Curve (rat) AUC; for Cmax: Table 3, read-out: Pharmacokinetic peak plasma concentration (rat) Cmax
Description: The pharmacokinetic behavior of compounds of this disclosure was determined following a single 2 mg/kg intravenous or 5 mg/kg oral dose in male Sprague-Dawley derived rats (n=3 per group). The compounds were prepared as 2 mg/mL solution in a 10% DMSO in PEG-400 formulation for both oral and intravenous administration. The 1 mL/kg intravenous dose was administered as a slow bolus (about 1-2 minutes) in the jugular vein of a rat under light ether anesthetic. The oral dose was administered by gavage. Serial blood samples were obtained from a tail vein of each rat prior 0.1 (IV only), 0.25, 0.5, 1, 1.5, 2, 3, 4, 6, 8 and 24 hours after dosing. The heparinized samples were thoroughly mixed and placed in an ice bath. Plasma was separated by centrifugation and stored frozen prior to analysis.
The compounds of interest were separated from the plasma using protein precipitation with acetonitrile. A plasma (100-200 μL, sample or spiked standard) aliquot was combined with 50 μL of internal standard (structurally related analog prepared in acetonitrile) and 1 ml acetonitrile in a 96-well polypropylene deep well plate. The plates were vortexed for 30 seconds followed by centrifugation (3500 rpm×15 minutes, 4° C.). In an automated manner, the supernatant was transferred to a clean 96-well plate. The samples were evaporated to near dryness on a Micro-Vap™ under a stream of dry nitrogen over low heat (˜37° C.). The samples were reconstituted vortexing with 0.2 mL 5% DMSO in acetonitrile. A 0.1-0.2 ml aliquot of acetonitrile: 0.1% trifluoroacetic acid (20:80, by volume) was added to each well, followed by an additional 30 second vortexing. The plates were centrifuged (3500 rpm×15 minutes, 4° C.) prior to HPLC-MS/MS analysis. Samples were analyzed simultaneously with spiked plasma standards. All samples from each study were analyzed as a single batch on the LC-MS/MS.
The compounds of interest and the internal standard were separated from each other and co-extracted contaminants on a 50×3 mm Keystone Betasil CN 5 μm column with an acetonitrile: 0.1% trifluoroacetic acid mobile phase (50:50, by volume) at a flow rate of 0.7 ml/min. Analysis was performed on a Sciex API 300™ Biomolecular Mass Analyzer using a heated nebulizer interface. Peak areas of the title compounds and internal standards were determined using the Sciex MacQuan™ software. Calibration curves were derived from peak area ratio (parent drug/internal standard) of the spiked rat plasma standards using least squares linear regression of the ratio versus the theoretical concentration. The methods were generally linear over the range of the standard curve (correlation coefficients >0.99) with an estimated quantitation limit of 0.01 μg/mL. The plasma concentration data for each animal were submitted to multi-exponential curve fitting using WinNonlin. The area under the plasma concentration-time curve from 0 to t hours (time of the last measurable plasma concentration) after dosing (AUC0-t) was calculated using the linear trapezoidal rule for the plasma concentration-time profiles. The residual area extrapolated to infinity, determined as the final measured plasma concentration (Ct) divided by the terminal elimination rate constant (β), was added to AUC0-t to produce the total area under the curve (AUC0-∞). Ki values shown in the tables below were determined using Wang's equation (Wang Z X., An Exact Mathematical Expression For Describing Competitive Binding Of Two Different Ligands To A Protein Molecule. FEBS Lett. 1995; 360:111-4)).

Bcl-2 protein = target: T1, Bcl-2 protein (Homo sapiens, UniProt P10415, DELINS35-91DVEENRTEAPEGTESE, form not given); experiment: Bcl-2 binding affinity, fluorescence polarization with fluorescein-labeled BAX peptide; conditions: Wang's equation, read-out: Target Binding Affinity Ki (Bcl-2)
T1 construct: fused on or other part: A short piece of the Bcl-xL (Q07817) loop replaces Bcl-2 loop residues 35-91; The C-terminal membrane anchor is absent
T1 sequence (P10415 with tags, fused parts or gaps with the stated changes): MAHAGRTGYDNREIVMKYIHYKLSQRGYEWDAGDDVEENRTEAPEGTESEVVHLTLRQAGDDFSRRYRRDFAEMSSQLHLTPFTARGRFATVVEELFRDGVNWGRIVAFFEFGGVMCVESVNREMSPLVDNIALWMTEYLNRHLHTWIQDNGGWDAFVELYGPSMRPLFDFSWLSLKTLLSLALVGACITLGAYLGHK

Bcl-XL protein = Bcl-XL protein (Homo sapiens, UniProt Q07817); experiment: Bcl-XL binding affinity, fluorescence polarization with fluorescein-labeled BAD peptide; conditions: Wang's equation, read-out: Target Binding Affinity Ki (Bcl-XL)
Sequence of Bcl-XL protein (Q07817 with tags, fused parts or gaps DEL45-84): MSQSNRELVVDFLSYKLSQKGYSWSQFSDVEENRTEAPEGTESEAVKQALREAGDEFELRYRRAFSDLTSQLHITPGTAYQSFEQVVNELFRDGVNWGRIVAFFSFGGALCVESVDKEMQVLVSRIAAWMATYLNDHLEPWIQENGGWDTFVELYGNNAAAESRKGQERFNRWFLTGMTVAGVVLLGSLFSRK
Description: A mixture comprising 125 μL per well of assay buffer (20 mM phosphate buffer (pH 7.4), 1 mM EDTA, 50 mM NaCl, 0.05% PF-68), 6 nM of Bcl-XL protein (prepared as described in Science 1997, 275, 983-986), 1 nM fluorescein-labeled BAD peptide (prepared in-house) and the DMSO solution of the compound was shaken for 2 minutes and placed in a LJL Analyst (LJL Bio Systems, CA). A negative control (DMSO, 15 nM BAD peptide, assay buffer) and a positive control (DMSO, 1 nM BAD peptide, 6 nM Bcl-XL, assay buffer) were used to determine the range of the assay. Polarization was measured at room temperature using a continuous Fluorescein lamp (excitation 485 nm, emission 530 nm). Percentage of inhibition was determined by (1-((mP value of well-negative control)/range))×100%.

[3] = Table 1, read-out: NCI-H146 Cellular Efficacy EC50
[4] = Table 3, read-out: NCI-H146 Cellular Efficacy H146 EC50

Row | Structure (SMILES) | EC50 [1, 3] | AUC(0-inf) [2] | Ki (Bcl-2 protein) | Ki (Bcl-XL protein) | EC50 [1, 4] | AUC [2] | Cmax [2]
1 | CC(C)N(C)CC[C@H](CSc1ccccc1)Nc1ccc(S(=O)(=O)NC(=O)c2ccc(N3CCN(CC4=C(c5ccc(Cl)cc5)CC(C)(C)CC4)CC3)cc2)cc1S(=O)(=O)C(F)(F)F [Example 14, N-(4-(4-((2-(4-chlorophenyl)-4,4-dimethylcyclohex-1-en-1-yl)methyl)piperazin-1-yl)benzoyl)-4-(((1R)-3-(isopropyl(methyl)amino)-1-((phenylsulfanyl)methyl)propyl)amino)-3-((trifluoromethyl)sulfonyl)benzenesulfonamide] | 30.9 nM | 3.42 µM·h | ≤ 1 nM | ≤ 1 nM |  |  | 
2 | O=C(NS(=O)(=O)c1ccc(N[C@H](CCN2CCOCC2)CSc2ccccc2)c(S(=O)(=O)C(F)(F)Cl)c1)c1ccc(N2CCN(CC3=C(c4ccc(Cl)cc4)CCCC3)CC2)cc1 [Example 3, 3-((chloro(difluoro)methyl)sulfonyl)-N-(4-(4-((2-(4-chlorophenyl)-1-cyclohex-1-en-1-yl)methyl)piperazin-1-yl)benzoyl)-4-(((1R)-3-(morpholin-4-yl)-1-((phenylsulfanyl)methyl)propyl)amino)benzenesulfonamide] | 28.8 nM | 4.13 µM·h | ≤ 1 nM | ≤ 1 nM | 29 nM | 4.13 µM·h | 385 nM
3 | CC1(C)CCC(c2ccc(Cl)cc2)=C(CN2CCN(c3ccc(C(=O)NS(=O)(=O)c4ccc(N[C@H](CCN5CCCC5)CSc5ccccc5)c(S(=O)(=O)C(F)(F)Cl)c4)cc3)CC2)C1 [Example 30, 3-((chloro(difluoro)methyl)sulfonyl)-N-(4-(4-((2-(4-chlorophenyl)-5,5-dimethylcyclohex-1-en-1-yl)methyl)piperazin-1-yl)benzoyl)-4-(((1R)-1-((phenylsulfanyl)methyl)-3-(pyrrolidin-1-yl)propyl)amino)benzenesulfonamide] | 31.7 nM | 3.39 µM·h | ≤ 1 nM | ≤ 1 nM |  |  | 
4 | CC(C)N(C)CC[C@H](CSc1ccccc1)Nc1ccc(S(=O)(=O)NC(=O)c2ccc(N3CCN(CC4=C(c5ccc(Cl)cc5)CCC(C)(C)C4)CC3)cc2)cc1S(=O)(=O)C(F)(F)Cl [Example 23, 3-((chloro(difluoro)methyl)sulfonyl)-N-(4-(4-((2-(4-chlorophenyl)-5,5-dimethylcyclohex-1-en-1-yl)methyl)piperazin-1-yl)benzoyl)-4-(((1R)-3-(isopropyl(methyl)amino)-1-((phenylsulfanyl)methyl)propyl)amino)benzenesulfonamide] | 52.8 nM | 3.54 µM·h | ≤ 1 nM | ≤ 1 nM |  |  | 
5 | O=C(NS(=O)(=O)c1ccc(N[C@H](CCN2CCCC2)CSc2ccccc2)c(S(=O)(=O)C(F)(F)Cl)c1)c1ccc(N2CCN(CC3=C(c4ccc(Cl)cc4)CCCCC3)CC2)cc1 [Example 32, 3-((chloro(difluoro)methyl)sulfonyl)-N-(4-(4-((2-(4-chlorophenyl)cyclohept-1-en-1-yl)methyl)piperazin-1-yl)benzoyl)-4-(((1R)-1-((phenylsulfanyl)methyl)-3-(pyrrolidin-1-yl)propyl)amino)benzenesulfonamide] | 18.7 nM | 1.38 µM·h | ≤ 1 nM | ≤ 1 nM |  |  | 
6 | CC1(C)CCC(CN2CCN(c3ccc(C(=O)NS(=O)(=O)c4ccc(N[C@H](CCN5CCOCC5)CSc5ccccc5)c(S(=O)(=O)C(F)(F)F)c4)cc3)CC2)=C(c2ccc(Cl)cc2)C1 [Example 24, N-(4-(4-((2-(4-chlorophenyl)-4,4-dimethylcyclohex-1-en-1-yl)methyl)piperazin-1-yl)benzoyl)-4-(((1R)-3-(morpholin-4-yl)-1-((phenylsulfanyl)methyl)propyl)amino)-3-((trifluoromethyl)sulfonyl)benzenesulfonamide] | 44.3 nM | 8.04 µM·h | ≤ 1 nM | ≤ 1 nM |  |  | 
7 | O=C(NS(=O)(=O)c1ccc(N[C@H](CCN2CCOCC2)CSc2ccccc2)c(S(=O)(=O)C(F)(F)F)c1)c1ccc(N2CCN(CC3=C(c4ccc(Cl)cc4)CCCC3)CC2)cc1 [Example 7, N-(4-(4-((2-(4-chlorophenyl)cyclohex-1-en-1-yl)methyl)piperazin-1-yl)benzoyl)-4-(((1R)-3-(morpholin-4-yl)-1-((phenylsulfanyl)methyl)propyl)amino)-3-((trifluoromethyl)sulfonyl)benzenesulfonamide] | 58.9 nM | 3.87 µM·h | ≤ 1 nM | ≤ 1 nM | 59 nM | 3.87 µM·h | 518 nM
8 | CN(C)CC[C@H](CSc1ccccc1)Nc1ccc(S(=O)(=O)NC(=O)c2ccc(N3CCN(CC4=C(c5ccc(Cl)cc5)CCCC4)CC3)cc2)cc1S(=O)(=O)C(F)(F)F [Example 26, N-(4-(4-((2-(4-chlorophenyl)cyclohex-1-en-1-yl)methyl)piperazin-1-yl)benzoyl)-4-(((1R)-3-(dimethylamino)-1-((phenylsulfanyl)methyl)propyl)amino)-3-((trifluoromethyl)sulfonyl)benzenesulfonamide] | 24.3 nM | 0.8 µM·h | ≤ 1 nM | ≤ 1 nM | 24 nM | 0.803 µM·h | 97 nM
9 | O=C(NS(=O)(=O)c1ccc(N[C@H](CCN2CCCC2)CSc2ccccc2)c(S(=O)(=O)C(F)(F)Cl)c1)c1ccc(N2CCN(CC3=C(c4ccc(Cl)cc4)CCCC3)CC2)cc1 [Example 35, 3-((chloro(difluoro)methyl)sulfonyl)-N-(4-(4-((2-(4-chlorophenyl)cyclohex-1-en-1-yl)methyl)piperazin-1-yl)benzoyl)-4-(((1R)-1-((phenylsulfanyl)methyl)-3-(pyrrolidin-1-yl)propyl)amino)benzenesulfonamide] | 7.6 nM | 1.26 µM·h | ≤ 1 nM | ≤ 1 nM |  |  | 
10 | CC(C)N(C)CC[C@H](CSc1ccccc1)Nc1ccc(S(=O)(=O)NC(=O)c2ccc(N3CCN(CC4=C(c5ccc(Cl)cc5)CCC(C)(C)C4)CC3)cc2)cc1S(=O)(=O)C(F)(F)F [Example 4, N-(4-(4-((2-(4-chlorophenyl)-5,5-dimethylcyclohex-1-en-1-yl)methyl)piperazin-1-yl)benzoyl)-4-(((1R)-3-(isopropyl(methyl)amino)-1-((phenylsulfanyl)methyl)propyl)amino)-3-((trifluoromethyl)sulfonyl)benzenesulfonamide] | 58.7 nM | 6.34 µM·h | ≤ 1 nM | ≤ 1 nM |  |  | 
